Read-outs that look alike come from different tables or passages of the source.
Legend:
Experiment in all cases: microbe, parasite or virus in culture
Type in all cases: cell-based, HIV-1
gag V370A/ΔT371 virus = conditions: for EC50: Human immunodeficiency virus 1, MT2, read-out: V370A/ΔT371 EC50
Procedure: (§1) Cells. MT-2 cells and 293T cells were obtained from the NIH AIDS Research and Reference Reagent Program. Cell lines were sub-cultured twice a week in either RPMI 1640 (MT-2) or DMEM (293T, HeLa) media supplemented with 10% heat inactivated fetal bovine serum (FBS), 100 units/mL of penicillin G and 100 μg/mL of streptomycin. The DMEM medium was additionally supplemented with 10 mM HEPES buffer, pH 7.55, 2 mM L-glutamine and 0.25 μg/mL of amphotericin B.
(§2) Viruses. NLRepRluc virus contains the Renilla luciferase marker in place of the viral nef gene. The proviral plasmid pNLRepRluc was constructed at Bristol-Myers Squibb, starting from a proviral NL4-3 clone (B subtype) that was obtained from the NIH AIDS Research and Reference Reagent Program. The parental recombinant wild type (WT) virus (NLRepRlucP373S) was derived from NLRepRluc and contains the additional substitution of P373 for serine in Gag (within the SP1 spacer), the most common 373 variation in subtype B. Other recombinant viruses (A364V, V370A/ΔT371 and the “T3325 triple” (T332S/V362I+HIV-1 protease R41G)) were generated by site-directed mutagenesis of plasmid pNLRepRlucP373S to introduce those amino acid substitutions in Gag and protease. Recombinant virus DNA was then used to generate virus stocks by transfection of 293T cells (Lipofectamine PLUS kit, Invitrogen). Titers of virus stocks were determined using a luciferase assay (Dual-Luciferase® Reporter Assay System, Promega, Milwaukee, Wis., USA) endpoint.
(§3) Multiple cycle drug susceptibility assay. Pellets of MT-2 cells were infected with NLRepRlucP373S Gag site-directed viruses, where initial inocula of the reporter strains were normalized using equivalent endpoint luciferase activity signals. Such cell-virus mixtures were resuspended in medium, incubated for 1-hour at 37° C./CO2, and added to compound containing 96-well plates at a final cell density of 10,000 cells per well. The test compounds were 3-fold serially diluted in 100% DMSO, and assayed at a final DMSO concentration of 1%. After 4-5 day incubation at 37° C./CO2, virus yields were determined by Renilla luciferase activity (Dual-Luciferase® Reporter Assay System, Promega). The endpoint luminescence was detected on a Wallac Trilux (PerkinElmer).
(§4) HIV-1 NL4-3 expressing Renilla luciferase gene was converted to the gag V370A/ΔT371 virus by site directed mutagenesis. A364V is a site directed mutant.
(§5) All three recombinant viruses were used as described above in the HIV cell culture assay for the NL4-3 virus.

[1] = test system: A364V site directed mutant virus; conditions: for EC50: Human immunodeficiency virus 1, MT2, read-out: A364V EC50
Procedure: as §1, §2, §3, §4, §5

[2] = test system: NLRepRlucP373S recombinant wild type (WT) virus
Procedure: as §1, §2, §3
(§6) The 50% inhibitory concentrations (EC50S) were calculated by using the exponential form of the median effect equation where Percent Inhibition=1/[1+(EC50/drug conc.^m], where m is a parameter that reflects the slope of the concentration-response curve. Background was taken as the residual signal observed upon inhibition at the highest concentration of a control protease inhibitor, NFV (3 μM).
as §6, with “The 90%” for “The 50%”, “concentrations (EC90S)” for “concentrations (EC50S)”, “where ECF=[(F/(100−F)]^1/H·EC50,” for “where Percent Inhibition=1/[1+(EC50/drug conc.^m],”, “where H” for “where m”

[3] = test system: T332S/V362I/Pr R41G virus; conditions: for EC50: Human immunodeficiency virus 1, MT2, read-out: T332S/V362I/pr41G EC50
Procedure: as §1, §2, §3
T332sN362I/Pr R41G (N14.3, B Clade) virus′ was obtained as follows: Selection for resistance of HIV-1 strain […] virus with the HIV maturation inhibitor (MI) compound
At passage 8 virus was harvested and sequenced.
as §5

[4] = Human immunodeficiency virus 1, MT2, read-out: WT EC50

Row | SMILES | EC50 (gag V370A/ΔT371 virus) [nM] | EC50 [1] [nM] | EC50 [2, 4] [nM] | EC50 [3] [nM] | EC90 (gag V370A/ΔT371 virus; Human immunodeficiency virus 1, read-out: V370A/ΔT371 EC90) [nM] | EC90 ([1]; Human immunodeficiency virus 1, read-out: A364V EC90) [nM] | EC50 ([2]; Human immunodeficiency virus 1, read-out: WT EC50) [nM] | EC90 ([3]; Human immunodeficiency virus 1, read-out: T332S/V362I/prR41G EC90) [nM]
1 | C=C(C)[C@@H]1CC[C@]2(NCCN3CCS(=O)(=O)CC3)CC[C@]3(C)[C@H](CC[C@@H]4[C@@]5(C)CC=C(C6=CCC(CCOc7nccc(OC)n7)(C(=O)O)CC6)C(C)(C)[C@@H]5CC[C@]43C)[C@@H]12 (stereo partly drawn) [Example A27, 4-((1R,3aS,5aR,5bR,7aR,11aS,11bR,13aR,13bR)-3a-((2-(1,1-dioxidothiomorpholino)ethyl)amino)-5a,5b,8,8,11a-pentamethyl-1-(prop-1-en-2-yl)-2,3,3a,4,5,5a,5b,6,7,7a,8,11,11a,11b,12,13,13a,13b-octadecahydro-1H-cyclopenta[a]chrysen-9-yl)-1-(2-((4-methoxypyrimidin-2-yl)oxy)ethyl)cyclohex-3-ene-1-carboxylic acid] | > 50 | > 50 | 22 | 3000 |  |  |  | 
2 | C=C(C)[C@@H]1CC[C@]2(NCCN3CCS(=O)(=O)CC3)CC[C@]3(C)[C@H](CC[C@@H]4[C@@]5(C)CC=C(C6=CCC(COc7nsc(=O)[nH]7)(C(=O)O)CC6)C(C)(C)[C@@H]5CC[C@]43C)[C@@H]12 (stereo partly drawn) [Example 14, 4-((1R,3aS,5aR,5bR,7aR,11aS,11bR,13aR,13bR)-3a-((2-(1,1-dioxidothiomorpholino)ethyl)amino)-5a,5b,8,8,11a-pentamethyl-1-(prop-1-en-2-yl)-2,3,3a,4,5,5a,5b,6,7,7a,8,11,11a,11 b,12,13,13a,13b-octadecahydro-1H-cyclopenta[a]chrysen-9-yl)-1-(((5-oxo-4,5-dihydro-1,2,4-thiadiazol-3-yl)oxy)methyl)cyclohex-3-ene-1-carboxylic acid] | > 50 | > 50 | 27 | > 50 |  |  |  | 
3 | C=C(C)[C@@H]1CC[C@]2(NCCN3CCS(=O)(=O)CC3)CC[C@]3(C)[C@H](CC[C@@H]4[C@@]5(C)CC=C(C6=CCC(CCOc7ncccc7C#N)(C(=O)O)CC6)C(C)(C)[C@@H]5CC[C@]43C)[C@@H]12 (stereo partly drawn) [Example A22, 1-(2-((3-cyanopyridin-2-yl)oxy)ethyl)-4-((1R,3aS,5aR,5bR,7aR,11aS,11bR,13aR,13bR)-3a-((2-(1,1-dioxidothiomorpholino)ethyl)amino)-5a,5b,8,8,11a-pentamethyl-1-(prop-1-en-2-yl)-2,3,3a,4,5,5a,5b,6,7,7a,8,11,11a,11b,12,13,13a,13b-octadecahydro-1H-cyclopenta[a]chrysen-9-yl)cyclohex-3-ene-1-carboxylic acid] | 13 | 27 | 4 | 13 |  |  |  | 
4 | C=C(C)[C@@H]1CC[C@]2(NCCN3CCS(=O)(=O)CC3)CC[C@]3(C)[C@H](CC[C@@H]4[C@@]5(C)CC=C(C6=CCC(COCc7ccccc7C#N)(C(=O)O)CC6)C(C)(C)[C@@H]5CC[C@]43C)[C@@H]12 (stereo partly drawn) [reference compound] |  |  |  |  | 2420 | 228 | 3 | 2420
5 | C=C(C)[C@@H]1CC[C@]2(NCCN3CCS(=O)(=O)CC3)CC[C@]3(C)[C@H](CC[C@@H]4[C@@]5(C)CC=C(C6=CCC(CCOc7cnccn7)(C(=O)O)CC6)C(C)(C)[C@@H]5CC[C@]43C)[C@@H]12 (stereo partly drawn) [Example A31, 4-((1R,3aS,5aR,5bR,7aR,11aS,11bR,13aR,13bR)-3a-((2-(1,1-dioxidothiomorpholino)ethyl)amino)-5a,5b,8,8,11a-pentamethyl-1-(prop-1-en-2-yl)-2,3,3a,4,5,5a,5b,6,7,7a,8,11,11a,11b,12,13,13a,13b-octadecahydro-1H-cyclopenta[a]chrysen-9-yl)-1-(2-(pyrazin-2-yloxy)ethyl)cyclohex-3-ene-1-carboxylic acid] | > 50 | 3000 | 3 | > 50 |  |  |  | 
6 | C=C(C)[C@@H]1CC[C@]2(NCCN3CCS(=O)(=O)CC3)CC[C@]3(C)[C@H](CC[C@@H]4[C@@]5(C)CC=C(C6=CC[C@@](COc7ccccn7)(C(=O)O)CC6)C(C)(C)[C@@H]5CC[C@]43C)[C@@H]12 [Example 31, (S)-4-((1R,3aS,5aR,5bR,7aR,11aS,11bR,13aR,13bR)-3a-((2-(1,1-dioxidothiomorpholino)ethyl)amino)-5a,5b,8,8,11a-pentamethyl-1-(prop-1-en-2-yl)-2,3,3a,4,5,5a,5b,6,7,7a,8,11,11a,11 b,12,13,13a,13b-octadecahydro-1H-cyclopenta[a]chrysen-9-yl)-1-((pyridin-2-yloxy)methyl)cyclohex-3-ene-1-carboxylic acid] | 9 | 6 | 2 | 9 |  |  |  | 
7 | C=C(C)[C@@H]1CC[C@]2(NCCN3CCS(=O)(=O)CC3)CC[C@]3(C)[C@H](CC[C@@H]4[C@@]5(C)CC=C(C6=CC[C@@](COc7cccc(OC)n7)(C(=O)O)CC6)C(C)(C)[C@@H]5CC[C@]43C)[C@@H]12 [Example 28, (S)-4-((1R,3aS,5aR,5bR,7aR,11aS,11bR,13aR,13bR)-3a-((2-(1,1-dioxidothiomorpholino)ethyl)amino)-5a,5b,8,8,11a-pentamethyl-1-(prop-1-en-2-yl)-2,3,3a,4,5,5a,5b,6,7,7a,8,11,11a,11 b,12,13,13a,13b-octadecahydro-1H-cyclopenta[a]chrysen-9-yl)-1-(((6-methoxypyridin-2-yl)oxy)methyl)cyclohex-3-ene-1-carboxylic acid] | 21 | 21 | 3 | 21 |  |  |  | 
8 | C=C(C)[C@@H]1CC[C@]2(NCCN3CCS(=O)(=O)CC3)CC[C@]3(C)[C@H](CC[C@@H]4[C@@]5(C)CC=C(C6=CCC(CCOc7ncccc7C(F)(F)F)(C(=O)O)CC6)C(C)(C)[C@@H]5CC[C@]43C)[C@@H]12 (stereo partly drawn) [Example A30, 4-((1R,3aS,5aR,5bR,7aR,11aS,11bR,13aR,13bR)-3a-((2-(1,1-dioxidothiomorpholino)ethyl)amino)-5a,5b,8,8,11a-pentamethyl-1-(prop-1-en-2-yl)-2,3,3a,4,5,5a,5b,6,7,7a,8,11,11a,11b,12,13,13a,13b-octadecahydro-1H-cyclopenta[a]chrysen-9-yl)-1-(2-((3-(trifluoromethyl)pyridin-2-yl)oxy)ethyl)cyclohex-3-ene-1-carboxylic acid] | 223 | 3000 | 13 | 223 |  |  |  | 
9 | C=C(C)[C@@H]1CC[C@]2(NCCN3CCS(=O)(=O)CC3)CC[C@]3(C)[C@H](CC[C@@H]4[C@@]5(C)CC=C(C6=CCC(CCOc7ncccn7)(C(=O)O)CC6)C(C)(C)[C@@H]5CC[C@]43C)[C@@H]12 (stereo partly drawn) [Example A25, 4-((1R,3aS,5aR,5bR,7aR,11aS,11bR,13aR,13bR)-3a-((2-(1,1-dioxidothiomorpholino)ethyl)amino)-5a,5b,8,8,11a-pentamethyl-1-(prop-1-en-2-yl)-2,3,3a,4,5,5a,5b,6,7,7a,8,11,11a,11b,12,13,13a,13b-octadecahydro-1H-cyclopenta[a]chrysen-9-yl)-1-(2-(pyrimidin-2-yloxy)ethyl)cyclohex-3-ene-1-carboxylic acid] | < 50 | < 50 | < 50 | < 50 |  |  |  | 
